ChEMBL document CHEMBL4732094, “Synthesis of some new benzoxazole derivatives and investigation of their anticancer activities” (Eur J Med Chem, 2021)

How the values were obtained:
[1] = test system: A549; test: Cytotoxicity against human A549 cells assessed as cell viability measured after 24 hrs by MTT assay; assay type: functional, cell-based; conditions: A549, 24 h
[2] = test system: C6; test: Cytotoxicity against rat C6 cells assessed as cell viability measured after 24 hrs by MTT assay; assay type: functional, cell-based; conditions: C6, 24 h
[3] = test system: HepG2; test: Cytotoxicity against human HepG2 cells assessed as cell viability measured after 24 hrs by MTT assay; assay type: functional, cell-based; conditions: HepG2, 24 h
[4] = test system: HT-29; test: Cytotoxicity against human HT-29 cells assessed as cell viability measured after 24 hrs by MTT assay; assay type: functional, cell-based; conditions: HT-29, 24 h
[5] = test system: MCF7; test: Cytotoxicity against human MCF7 cells assessed as cell viability measured after 24 hrs by MTT assay; assay type: functional, cell-based; conditions: MCF7, 24 h
[6] = test system: NIH3T3; test: Cytotoxicity against mouse NIH3T3 cells assessed as cell viability measured after 24 hrs by MTT assay; assay type: cell-based; conditions: NIH3T3, 24 h
[7] = Selectivity index, ratio of IC50 for cytotoxicity against mouse NIH3T3 cells to IC50 for cytotoxicity against human A549 cells; assay type: toxicity, cell-based; conditions: NIH3T3 cells versus A549 cells, read-out: Ratio IC50
[8] = Selectivity index, ratio of IC50 for cytotoxicity against mouse NIH3T3 cells to IC50 for cytotoxicity against rat C6 cells; assay type: toxicity, cell-based; conditions: NIH3T3 cells versus C6 cells, read-out: Ratio IC50
[9] = Selectivity index, ratio of IC50 for cytotoxicity against mouse NIH3T3 cells to IC50 for cytotoxicity against human HepG2 cells; assay type: toxicity, cell-based; conditions: NIH3T3 cells versus HepG2 cells, read-out: Ratio IC50
[10] = Selectivity index, ratio of IC50 for cytotoxicity against mouse NIH3T3 cells to IC50 for cytotoxicity against human HT-29 cells; assay type: toxicity, cell-based; conditions: NIH3T3 cells versus HT-29 cells, read-out: Ratio IC50
[11] = Selectivity index, ratio of IC50 for cytotoxicity against mouse NIH3T3 cells to IC50 for cytotoxicity against human MCF7 cells; assay type: toxicity, cell-based; conditions: NIH3T3 cells versus MCF7 cells, read-out: Ratio IC50
[12] = test system: HepG2; test: Inhibition of DNA synthesis in human HepG2 cells assessed as reduction in cell proliferation measured after 24 to 48 hrs by BrdU proliferation assay; assay type: functional, cell-based; conditions: time 24-48 hrs
[13] = test system: HepG2; test: Induction of apoptosis in human HepG2 cells assessed as viable cells at IC50 concentration measured after 24 hrs by Annexin V-FITC/PI staining based flow cytometry method (reference value: 87.8%); assay type: functional
[14] = test system: HepG2; test: Induction of apoptosis in human HepG2 cells assessed as early apoptotic cells at IC50 concentration measured after 24 hrs by Annexin V-FITC/PI staining based flow cytometry method (reference value: 0.9%); assay type: functional
[15] = test system: HepG2; test: Induction of apoptosis in human HepG2 cells assessed as late apoptotic cells at IC50 concentration measured after 24 hrs by Annexin V-FITC/PI staining based flow cytometry method (reference value: 8.7%); assay type: functional
[16] = test system: HepG2; test: Induction of apoptosis in human HepG2 cells assessed as necrotic cells at IC50 concentration measured after 24 hrs by Annexin V-FITC/PI staining based flow cytometry method (reference value: 4.6%); assay type: functional
[17] = test system: C6; test: Inhibition of DNA synthesis in rat C6 cells assessed as reduction in cell proliferation measured after 24 to 48 hrs by BrdU proliferation assay; assay type: functional, cell-based; conditions: time 24-48 hrs
[18] = test system: C6; test: Induction of apoptosis in rat C6 cells assessed as apoptotic cells at IC50 concentration measured after 24 hrs by Annexin V-FITC/PI staining based flow cytometry method relative to control; assay type: functional
[19] = Drug metabolism in human HepG2 cells assessed as amine metabolite formation after 24 hrs by LCMS-IT-TOF analysis; assay type: ADME, cell-based; conditions: hepg2, 24 h
[20] = Drug metabolism in human HepG2 cells assessed as oxidative dehalogenation after 24 hrs by LCMS-IT-TOF analysis; assay type: ADME, cell-based; conditions: hepg2, 24 h
[21] = test system: HT-29; test: Inhibition of DNA synthesis in human HT-29 cells assessed as reduction in cell proliferation measured after 24 to 48 hrs by BrdU proliferation assay; assay type: functional, cell-based; conditions: time 24-48 hrs
[22] = test system: MCF7; test: Inhibition of DNA synthesis in human MCF7 cells assessed as reduction in cell proliferation measured after 24 to 48 hrs by BrdU proliferation assay; assay type: functional, cell-based; conditions: time 24-48 hrs
[23] = test system: HT-29; test: Induction of apoptosis in human HT-29 cells assessed as viable cells at IC50 concentration measured after 24 hrs by Annexin V-FITC/PI staining based flow cytometry method (reference value: 90.3%); assay type: functional
[24] = test system: HT-29; test: Induction of apoptosis in human HT-29 cells assessed as early apoptotic cells at IC50 concentration measured after 24 hrs by Annexin V-FITC/PI staining based flow cytometry method (reference value: 1.1%); assay type: functional
[25] = test system: HT-29; test: Induction of apoptosis in human HT-29 cells assessed as late apoptotic cells at IC50 concentration measured after 24 hrs by Annexin V-FITC/PI staining based flow cytometry method (reference value: 1.5%); assay type: functional
[26] = test system: HT-29; test: Induction of apoptosis in human HT-29 cells assessed as necrotic cells at IC50 concentration measured after 24 hrs by Annexin V-FITC/PI staining based flow cytometry method (reference value: 7.2%); assay type: functional
[27] = test system: MCF7; test: Induction of apoptosis in human MCF7 cells assessed as viable cells at IC50 concentration measured after 24 hrs by Annexin V-FITC/PI staining based flow cytometry method (reference value: 94.9%); assay type: functional
[28] = test system: MCF7; test: Induction of apoptosis in human MCF7 cells assessed as early apoptotic cells at IC50 concentration measured after 24 hrs by Annexin V-FITC/PI staining based flow cytometry method (reference value: 2.2%); assay type: functional
[29] = test system: MCF7; test: Induction of apoptosis in human MCF7 cells assessed as late apoptotic cells at IC50 concentration measured after 24 hrs by Annexin V-FITC/PI staining based flow cytometry method (reference value: 1.8%); assay type: functional
[30] = test system: MCF7; test: Induction of apoptosis in human MCF7 cells assessed as necrotic cells at IC50 concentration measured after 24 hrs by Annexin V-FITC/PI staining based flow cytometry method (reference value: 1%); assay type: functional

In the case of `Cc1cc(-c2nc3ccccc3o2)ccc1NC(=O)CN1CCN(CCCN(C)C)CC1`, the IC50 [1] is reported as 22.1 µM, the IC50 [2] is reported as 38.7 µM and the IC50 [3] is reported as 2.16 µM. It also gave an IC50 [4] of 15.5 µM, an IC50 [5] of 11.3 µM and an IC50 [6] of 33.5 µM. The selectivity ratio [7] was 1.52, the selectivity ratio [8] was 0.86 and the selectivity ratio [9] was 15.5. For the same compound, the selectivity ratio [10] was 2.17, the selectivity ratio [11] was 2.97 and the inhibition [12] was “Dose-dependent effect”. The Activity [13] was 77.5%, the Activity [14] was 5% and the Activity [15] was 16.7%. For the same compound, the Activity [16] was 0.8%.

Compound `CN(C)CCN1CCN(CC(=O)Nc2ccc(-c3nc4cc(Cl)ccc4o3)cc2)CC1` has an IC50 [1] of 7.1 µM, an IC50 [2] of 1.03 µM and an IC50 [3] of 2.64 µM. For the same compound, the IC50 [4] was 4.47 µM, the IC50 [5] was 7.92 µM and the IC50 [6] was 28.7 µM. It also gave a selectivity ratio [7] of 4.04, a selectivity ratio [8] of 27.8 and a selectivity ratio [9] of 10.9. For the same compound, the selectivity ratio [10] was 6.41, the selectivity ratio [11] was 3.62 and the inhibition [12] was “Dose-dependent effect”. For the same compound, the inhibition [17] was “Dose-dependent effect”, the Activity [13] was 85.2% and the Activity [14] was 3.7%. The Activity [15] was 10.3%, the Activity [16] was 0.8% and the Activity [18] was 10.7%. The Drug metabolism [19] was “Metabolite_Detected” and the Drug metabolism [20] was “Metabolite_Detected”.

`COc1cccc2c1C(=O)c1c(O)c3c(c(O)c1C2=O)C[C@@](O)(C(=O)CO)C[C@@H]3O[C@H]1C[C@H](N)[C@H](O)[C@H](C)O1` [DOXORUBICIN] showed an IC50 [1] of 10.8 µM, an IC50 [2] of 25.6 µM and an IC50 [3] of 18 µM. For the same compound, the IC50 [4] was 16.3 µM, the inhibition [21] was “Dose-dependent effect” and the inhibition [22] was “Dose-dependent effect”. For the same compound, the inhibition [12] was “Dose-dependent effect”, the inhibition [17] was “Dose-dependent effect” and the Activity [23] was 88%. It also gave an Activity [24] of 1.9%, an Activity [25] of 6.6% and an Activity [26] of 3.5%. It also gave an Activity [27] of 42.9%, an Activity [28] of 1% and an Activity [29] of 49.3%. For the same compound, the Activity [30] was 6.8%, the Activity [13] was 73.6% and the Activity [14] was 0.9%. For the same compound, the Activity [15] was 21.4%, the Activity [16] was 4.2% and the Activity [18] was 35.7%.

Compound `CN(C)CCCN1CCN(CC(=O)Nc2ccc(-c3nc4cc(Cl)ccc4o3)cc2)CC1` has an IC50 [1] of 4.32 µM, an IC50 [2] of 0.91 µM and an IC50 [3] of 1.25 µM. The IC50 [4] was 1.64 µM, the IC50 [5] was 1.65 µM and the IC50 [6] was 25.8 µM. The selectivity ratio [7] was 5.96, the selectivity ratio [8] was 28.3 and the selectivity ratio [9] was 20.6. For the same compound, the selectivity ratio [10] was 15.7, the selectivity ratio [11] was 15.6 and the inhibition [21] was “Dose-dependent effect”. The inhibition [22] was “Dose-dependent effect”, the inhibition [12] was “Dose-dependent effect” and the inhibition [17] was “Dose-dependent effect”. It also gave an Activity [23] of 85.5%, an Activity [24] of 6.5% and an Activity [25] of 7.4%. For the same compound, the Activity [26] was 0.6%, the Activity [27] was 25.9% and the Activity [28] was 23.7%. The Activity [29] was 46.4%, the Activity [30] was 3.9% and the Activity [13] was 62.6%. It also gave an Activity [14] of 8.3%, an Activity [15] of 27.9% and an Activity [16] of 1.1%. For the same compound, the Activity [18] was 13.6%, the Drug metabolism [19] was “Metabolite_Detected” and the Drug metabolism [20] was “Metabolite_Detected”.

`Cc1ccc2oc(-c3ccc(NC(=O)CN4CCN(CCN(C)C)CC4)cc3)nc2c1` gave an IC50 [1] of 3.66 µM, an IC50 [2] of 1.63 µM and an IC50 [3] of 1.27 µM. For the same compound, the IC50 [4] was 1.79 µM, the IC50 [5] was 23.7 µM and the IC50 [6] was 28.9 µM. It also gave a selectivity ratio [7] of 7.9, a selectivity ratio [8] of 17.8 and a selectivity ratio [9] of 22.8. For the same compound, the selectivity ratio [10] was 16.2, the selectivity ratio [11] was 1.22 and the inhibition [21] was “Dose-dependent effect”. For the same compound, the inhibition [17] was “Dose-dependent effect”, the Activity [23] was 76% and the Activity [24] was 15%. It also gave an Activity [25] of 8.5%, an Activity [26] of 0.4% and an Activity [18] of 19.3%.
